Test results: a melting point compilation (Tetko et al.)

SMILES | melting point [°C]
Clc1cc[nH]n1 | 68 to 70
CC(=O)c1ccc(C(F)(F)F)[nH]c1=O | 87 to 89
N=C1NCCO1 | 69 to 71
CC(C)(C)c1cc(N)n(-c2cccc(Cl)c2)n1 | 99 to 101
Cc1nn(-c2ccc(Br)cc2)cc1C=O | 111 to 113
Cc1cc(S(=O)(=O)c2ccc(O)c(C)c2)ccc1O | 273 to 276
CN1C(=O)Cc2cc(C(=O)CCl)ccc21 | 199 to 201
CS(=O)(=O)CCCOc1cccc2c1CCC2O (configuration not stated) | 77 to 79
Cc1c(CN)cnn1C | 38 to 40
O=S(=O)(Cl)c1c[nH]cn1 | 164 to 166
C#CCN1C(=O)COc2ccc(Br)cc21 | 111 to 113
O=C1CCc2cc(Br)ccc2N1 | 169 to 171
NCC(O)c1cc(Cl)c2c(c1)OCCO2 (configuration not stated) | 131 to 133
CCOc1ccc(C(=O)O)cn1 | 184 to 186
O=C(O)c1ccc(F)c2ccsc12 | 230 to 232
CCOc1cc(/C=C/C(=O)O)ccc1OC | 164 to 166
O=C1Nc2cc3c(cc2C1=O)OCCCO3 | 230 to 232
COc1ccc(CN2CCNCC2)cc1OC | 27 to 40
CN(C)c1ccc(Br)c(S(=O)(=O)Cl)c1 | 111 to 113
Cc1cc(C)cc(-c2cc(N)[nH]n2)c1 | 75 to 77
Cc1ccc2[nH]c(=O)n3nc(C4CC4)nc3c2c1 | 260 to 262
CC(C)(C)c1ccc(S(=O)(=O)Cl)s1 | 47 to 49

SMILES | melting point [°C]
CCC1(c2cccc(Cl)c2)NC(=O)NC1=O (configuration not stated) | 159 to 161
CC(C)S(=O)(=O)c1ccc(F)c(C(=O)O)c1 | 139 to 141
CSc1ccc(C#N)cc1N | 42 to 44
COC(=O)c1cnc2c(c1)c(C)nn2C | 129 to 131
Cc1cc(C(F)(F)F)nc(O)n1 | 185 to 187
COC(=O)C1CSCCC1=O (configuration not stated) | 67 to 69
O=C(CBr)c1sccc1Br | 60 to 62
Cc1cc(C)n2nc(Br)nc2n1 | 185 to 187
Nc1nnc(-c2cccc(Br)c2)s1 | 216 to 218
COc1ccc2nc(C)cc(C(=O)O)c2c1 | 279 to 281
COc1ccc([N+](=O)[O-])cc1CCl | 78 to 80
O=C(O)CSc1nnc(-c2ccc(Cl)cc2Cl)[nH]1 | 161 to 163
O=c1cc(CCl)c2cc3c(cc2o1)CCC3 | 142 to 144
O=C(O)C1CC1c1ccc(F)c(F)c1 (configuration not stated) | 89 to 91
Cc1cc(Br)cn2c(CO)cnc12 | 174 to 176
COC(=O)c1cc(S(=O)(=O)Cl)c(Cl)cc1Cl | 110 to 112
N#Cc1ccc(N2CCCC(N)C2=O)cc1 (configuration not stated) | 101 to 103
COC(=O)c1ccc(F)c(C)c1N | 35 to 37
CC(=O)Nc1ccc(O)c(C(=O)O)c1 | 221 to 223
CC(=O)c1nc2ccc(Cl)cc2[nH]1 | 173 to 175
CC(C)(C)c1ccc2c(c1)C(=O)C(=O)N2 | 145 to 147
Cc1ccc(N)c2cccnc12 | 144 to 146

SMILES | melting point [°C]
Cn1nnnc1-c1cccc(S(N)(=O)=O)c1 | 168 to 170
Fc1cccc(CCNC2=NCCS2)c1 | 74 to 76
O=C(O)CNC(=O)c1ccsc1 | 176 to 178
CCOC(=O)CNC(=O)NCC(=O)OCC | 146 to 148
O=C(O)C=C(C1CC1)C1CC1 | 134 to 136
CCOc1ncccc1C(=O)O | 90 to 92
COc1ccc(-c2nc(C(=O)O)cs2)cc1OC | 204 to 206
Sc1nnnn1-c1ccc2c(c1)OCCO2 | 143 to 145
CCOc1cc2c(cc1OCC)CNCC2 | 108 to 110
Clc1ccc2c(c1)NCCCS2 | 51 to 53
NC(=O)NCC1CC1 | 117 to 119
O=C(O)c1ccc(Br)c(O)c1 | 219 to 221
Nc1cnc(C2CC2)nc1 | 169 to 171
Cc1ccc2ncc(C(=O)O)c(=O)n2c1 | 259 to 261
CC(=O)c1c(C)[nH]c(C(=O)CCl)c1C | 170 to 180
CN(C)C(=O)c1cccnc1Cl | 69 to 71
Cc1cc(=O)[nH]c(-c2cccc(O)c2)n1 | 213 to 215
CC1(C)CCC(C#N)=C1N | 108 to 110
CNC(=O)C1(C(=O)O)CCC1 | 144 to 146
FC(F)Sc1nc2ccccc2[nH]1 | < 17
CCC1(C(=O)O)CCOCC1 | 83 to 85
O=S(=O)(c1ccc(CCl)cc1)C(F)F | 63 to 65

SMILES | melting point [°C]
Cc1csc(CC(N)=S)n1 | 126 to 128
O=C(O)c1ccc(F)c(S(=O)(=O)N2CCCCC2)c1 | 203 to 205
NCCNS(=O)(=O)Cc1ccon1 | 89 to 91
O=C(O)c1cc(C2CC2)nc2ccc(F)cc12 | 196 to 198
Cc1ncsc1-c1cnco1 | 96 to 98
N#Cc1ccc(Cl)nn1 | 83 to 85
CCC1(O)CCC(N)CC1 (configuration not stated) | 79 to 81
Nc1nc(-c2cccc(F)c2)cs1 | 113 to 115
Cc1cc(C)c2c(n1)NCC(=O)N2 | 209 to 211
NC(=S)N1CCCC1 | 140 to 142
Nc1ccc(S(N)(=O)=O)cc1Br | 153 to 155
O=C(CCl)NC(=O)Nc1ccc2c(c1)OCCO2 | 128 to 130
O=C(O)c1ccnc(OC2CCOC2)c1 (configuration not stated) | 109 to 111
CC(C1CC1)n1ncc2c(C(=O)O)cc(C3CC3)nc21 (configuration not stated) | 148 to 150
O=C(O)C1CCCN1C(=O)Nc1ccc(F)cc1 (configuration not stated) | 163 to 165
O=C(O)CNC1CCCC1 | 210 to 212
O=C(O)c1cccnc1SC(F)F | 184 to 188
O=[N+]([O-])c1ccc2c(c1)NCCS2 | 142 to 144
N#Cc1c[nH]c(C(=O)O)c1 | 256 to 258
Nc1ccc(S(=O)(=O)C(F)(F)F)cc1N | 109 to 111
Cc1ccc(C)c(-c2nc(N)sc2C)c1 | 92 to 94
Cc1c(Br)ccc(S(N)(=O)=O)c1C | 195 to 197

The remaining lines, values ahead:

melting point [°C] | SMILES
250 to 252 | Cn1c(=O)cc(C(=O)O)c2ccccc21
198 to 200 | Cc1ccn(-c2cccc(C(=O)O)c2)n1
97 to 99 | CNC(=O)C1Cc2ccccc2CN1 (configuration not stated)
178 to 180 | Nc1nc2ccccc2n1CCCn1ccnc1
127 to 129 | O=C(O)C1CCN(C(=O)CCOc2ccccc2)CC1
229 to 231 | O=C(O)c1cc(Br)cc2ccccc12
98 to 100 | O=Cc1cccc(OC(C(=O)O)c2ccccc2)c1 (configuration not stated)
126 to 128 | O=C(O)Cc1cccc(OCc2ccc(Cl)cc2)c1
106 to 108 | O=C(O)c1cccnc1-n1cccn1
157 to 159 | COCCOc1ccc(-n2nc(C)c(C(=O)O)n2)cc1
41 to 43 | O=C(CCc1ccccc1)Cc1ccccc1
134 to 136 | O=C(O)C(Oc1ccc(F)cc1Cl)c1ccccc1 (configuration not stated)
170 to 172 | N#CCNC(=O)c1ccc(Br)cc1
92 to 94 | COC(=O)c1ncsc1SCc1ccccc1
196 to 198 | O=C(Nc1sccc1C(=O)O)c1ccco1
201 to 203 | CC(C)(C)CNC(=O)c1ccc(C(=O)O)cc1
101 to 103 | O=C(O)C1(c2cccc(Cl)c2)CCC1
62 to 64 | NNS(=O)(=O)CCc1ccccc1
74 to 76 | OC(CC1COCCN1)c1ccccc1 (configuration not stated)
48 to 50 | O=C(Cc1ccccc1)C[N+](=O)[O-]

melting point [°C] | SMILES
167 to 169 | O=C(CCl)Nc1ccc(N2CCc3ccccc32)cc1
173 to 175 | CC(C)(C(=O)O)c1ccc(-c2ccccc2)cc1
33 to 35 | N#Cc1cc2ccccc2o1
79 to 81 | O=C(O)C1CCCN1S(=O)(=O)c1ccccc1 (configuration not stated)
105 to 107 | CN(C(=O)c1ccncc1)c1ccc(C#N)cc1
49 to 51 | Clc1nccc(OCc2ccccc2)n1
69 to 71 | CCOC(=O)c1nnc(-c2ccccc2)o1
102 to 104 | O=[N+]([O-])c1ccccc1C(O)c1cccnc1 (configuration not stated)
97 to 99 | O=C(O)CCc1ccc(Br)cc1F
74 to 76 | NCCNS(=O)(=O)c1ccccc1
209 to 211 | CNC(=O)c1ccc(C#N)cc1
114 to 116 | N#Cc1ccc(NC(=O)CCCCl)cc1
124 to 126 | O=C(O)CCc1ccc([N+](=O)[O-])cc1[N+](=O)[O-]
118 to 120 | O=C(CSc1ccccc1C(=O)O)NCC1CCCCC1
160 to 162 | O=C(O)c1ccccc1OCc1cccnc1
73 to 75 | CC(C)C(O)Cc1ccccc1Br (configuration not stated)
225 to 228 | O=C(O)c1ccc(S(=O)(=O)Nc2ccccc2)cc1
62 to 64 | CCNC(=O)COc1cccc(CN)c1
142 to 144 | COC(=O)C(=O)CC(=O)c1ccc(-c2ccccc2)cc1
85 to 87 | NCC(=O)Nc1ccc(F)cc1

melting point [°C] | SMILES
104 to 106 | O=C(O)CCCCNC(=O)OCc1ccccc1
144 to 146 | O=C(O)c1csc(-c2cccc3ccccc23)n1
98 to 100 | O=Cc1cccc(OCCC(=O)O)c1
214 to 216 | O=C1Nc2ccc(-c3ccccc3)cc2C1=O
134 to 136 | CC(C)S(=O)(=O)Cc1ccc(N)cc1
273 to 275 | NC(C(=O)O)c1cccc(F)c1 (configuration not stated)
246 to 248 | C=CC(=O)Nc1ccc(C(=O)O)cc1
174 to 176 | NC(=O)c1ccccc1OCCC(=O)O
86 to 88 | Cn1ccnc1SCc1ccccc1[N+](=O)[O-]
244 to 246 | COc1ccc(-c2nn(-c3ccccc3)cc2C(=O)O)cc1
250 to 252 | CC(C)c1ccc(/C=C(/C(=O)O)c2cccs2)cc1
129 to 133 | CCOc1ccc(S(=O)(=O)N(C)c2ccc(O)cc2)cc1
129 to 131 | CC(N)c1nc(-c2ccccc2)c[nH]1 (configuration not stated)
53 to 55 | Nc1ccc(F)cc1Nc1ccccc1F
301 to 303 | O=C1Nc2ccccc2S(=O)(=O)N1
195 to 197 | O=C(O)c1ccc(Cl)c(S(=O)(=O)N2CCc3ccccc32)c1
101 to 103 | COc1ccc(/C=N/OCC(=O)O)cc1
154 to 156 | O=C(O)CCc1nc2cc(Br)ccc2s1
61 to 63 | NCC1(Nc2ccccc2)CCCCC1
